# Where a name gives a salt, the structure may show the parent alone.
# System: mice
# Assay: Neuropharmacological Assay (SmartCube): automated behavioral signature of compound-treated mice compared with a database of reference drug classes
# Assay type: in vivo
# Conditions: for AG / AN / CE / HL / MS / PS / SH / UK / AD / AP / AX: probability that activity matches this class of agents, 3.0 mg/kg i.p., 15 min before test
# Text: Neurosci. 2011 Sep. 9; 5: 103 (doi: 10.3389/fnins.2011.00103) (“Roberds”). As reported in Roberds, because psychiatric diseases generally result from disorders of cell-cell communication or circuitry, intact systems are useful in detecting improvement in disease-relevant endpoints. These endpoints are typically behavioral in nature, often requiring human observation and interpretation. To facilitate testing of multiple compounds for behavioral effects relevant to psychiatric disease, PsychoGenics, Inc. (Tarrytown, NY, “PGI”) developed SmartCube™ an automated system in which behaviors of compound-treated mice are captured by digital video and analyzed with computer algorithms. (D. Brunner et al. Drug Discov. Today 2002, 7:S107-S112). PGI Analytical Systems uses data from SmartCube™ to compare the behavioral signature of a test compound to a database of behavioral signatures obtained using a large set of diverse reference compounds. (The composition of the database as well as validation of the method is further described in Roberds). In this way, the neuropharmacological effects of a test compound can be predicted by similarity to major classes of compounds, such as antipsychotics, anxiolytics and antidepressants.
# The SmartCube™ system produces an activity signature indicating the probability that the activity of the test compound at the administered dose matches a given class of neuropharmacological agents. (See, e.g., Roberds, FIGS. 2 and 3). The test compound is simultaneously compared against multiple classes of agents; thus, a separate probability is generated for each behavioral effect measured (e.g., anxiolytic activity, analgesic activity, etc.). In table 2 below, these probabilities are reported for each behavioral effect measured as described in Table 1 below.
# Provided compounds were dissolved in a mixture of Pharmasolve™ (N-methyl-2-pyrrolidone), polyethylene glycol and propylene glycol, and were injected i.p. 15 min. before the behavioral test. For each compound, injections were administered at 3 different doses. For each behavioral effect measured, results for the 3.0 mg/kg dose are presented. The potency of many of the compounds in the table was also determined in the SmartCube™ system. Test compounds were routinely examined at dose levels of 0.3, 1, 3 and 10 mg per kg (mpk), although the dose range was increased or decreased, if necessary, to obtain a full dose response curve. A compound's minimal effective dose (MED) is a measure of the compound's potency. The MED was defined as the dose (in mpk) having 45% or more total activity in SmartCube. If only one dose was tested, that dose is shown in the MED column of Table 2 even though the dose is not known to be the MED.
# [1] = dose having 45% or more total activity in SmartCube, i.p., if only one dose was tested, that dose is shown, hydrochloride
Structure (SMILES),MED (minimal effective dose) [1],AG,AN,CE,HL,MS,PS,SH,UK,"AD (hydrochloride, 3 mg/kg)","AP (hydrochloride, 3 mg/kg)","AX (hydrochloride, 3 mg/kg)",AP,"CE (hydrochloride, 3 mg/kg)","UK (hydrochloride, 3 mg/kg)","minimal effective dose (Mus musculus, ip, dose having 45% or more total activity in SmartCube, i.p., if only one dose was tested, that dose is shown, read-out: MED (minimal effective dose))",AD,AX,"MED (minimal effective dose) (dose having 45% or more total activity in SmartCube, i.p., if only one dose was tested, that dose is shown)","SH (hydrochloride, 3 mg/kg)"
"Cl.c1cc2c(s1)CC(N1CCCC1)CC2 (single isomer, unassigned) [Compound 17, 1-(4,5,6,7-tetrahydrobenzothiophen-6-yl)pyrrolidine hydrochloride]",1.0 mpk,ND (^ <4%),ND (^ <4%),ND (^ <4%),ND (^ <4%),ND (^ <4%),ND (^ <4%),ND (^ <4%),ND (^ <4%),ND (^ <4%),+++ (≥49%),++++ (≥74%),–,–,–,–,–,–,–,–
"Cl.c1cc2c(s1)CC(N1CCCC1)CC2 (single isomer, unassigned) [Compound 18, 1-(4,5,6,7-tetrahydrobenzothiophen-6-yl)pyrrolidine hydrochloride]",0.3 mpk,ND (^ <4%),ND (^ <4%),ND (^ <4%),ND (^ <4%),ND (^ <4%),ND (^ <4%),ND (^ <4%),ND (^ <4%),++++ (≥74%),+ (≥4%),ND (^ <4%),–,–,–,–,–,–,–,–
"CNC1Cc2ccsc2C1.Cl (single isomer, unassigned) [Compound 19, N-methyl-5,6-dihydro-4H-cyclopenta[b]thiophen-5-amine hydrochloride]",3.0 mpk,ND (^ <4%),ND (^ <4%),–,ND (^ <4%),ND (^ <4%),ND (^ <4%),ND (^ <4%),–,++ (≥24%),–,++ (≥24%),+ (≥4%),ND (^ <4%),+ (≥4%),–,–,–,–,–
"CNC1Cc2ccsc2C1.Cl (single isomer, unassigned) [Compound 20, N-methyl-5,6-dihydro-4H-cyclopenta[b]thiophen-5-amine hydrochloride]",1.0 mpk,ND (^ <4%),ND (^ <4%),–,ND (^ <4%),ND (^ <4%),ND (^ <4%),ND (^ <4%),–,++++ (≥74%),–,+ (≥4%),+ (≥4%),+ (≥4%),ND (^ <4%),–,–,–,–,–
"Cl.c1cc2c(s1)CC(N1CCOCC1)CC2 (single isomer, unassigned) [Compound 22, 4-(4,5,6,7-tetrahydrobenzo[b]thiophen-6-yl)morpholine hydrochloride]",–,ND (^ <4%),ND (^ <4%),ND (^ <4%),ND (^ <4%),ND (^ <4%),ND (^ <4%),ND (^ <4%),–,–,–,–,ND (^ <4%),–,+ (≥4%),> 10 mg/kg,ND (^ <4%),ND (^ <4%),–,–
"Cl.c1cc2c(s1)CC(N1CCOCC1)CC2 (single isomer, unassigned) [Compound 23, 4-(4,5,6,7-tetrahydrobenzo[b]thiophen-6-yl)morpholine hydrochloride]",–,ND (^ <4%),ND (^ <4%),ND (^ <4%),ND (^ <4%),ND (^ <4%),ND (^ <4%),ND (^ <4%),–,–,–,–,ND (^ <4%),–,ND (^ <4%),–,ND (^ <4%),ND (^ <4%),>10 mpk,–
"CNC1CCCc2ccsc2C1.Cl (single isomer, unassigned) [Compound 25, N-methyl-5,6,7,8-tetrahydro-4H-cyclohepta[b]thiophen-7-amine hydrochloride]",1.0 mpk,ND (^ <4%),ND (^ <4%),–,ND (^ <4%),ND (^ <4%),ND (^ <4%),–,–,–,++++ (≥74%),–,–,ND (^ <4%),ND (^ <4%),–,ND (^ <4%),ND (^ <4%),–,ND (^ <4%)
"CNC1CCCc2ccsc2C1.Cl (single isomer, unassigned) [Compound 26, N-methyl-5,6,7,8-tetrahydro-4H-cyclohepta[b]thiophen-7-amine hydrochloride]",3.0 mpk,ND (^ <4%),ND (^ <4%),–,ND (^ <4%),ND (^ <4%),ND (^ <4%),–,–,–,ND (^ <4%),–,–,+ (≥4%),++ (≥24%),–,ND (^ <4%),ND (^ <4%),–,+ (≥4%)
"CNC1CCc2cc(C)sc2C1 (single isomer, unassigned) [Compound 28, N, 2-dimethyl-4,5,6,7-tetrahydrobenzothiophen-6-amine hydrochloride]",3.0 mpk,ND (^ <4%),ND (^ <4%),ND (^ <4%),ND (^ <4%),ND (^ <4%),ND (^ <4%),ND (^ <4%),–,+++ (≥49%),ND (^ <4%),–,–,–,ND (^ <4%),–,–,++ (≥24%),–,–
"CNC1CCc2cc(C)sc2C1 (single isomer, unassigned) [Compound 29, N, 2-dimethyl-4,5,6,7-tetrahydrobenzothiophen-6-amine hydrochloride]",1.0 mpk,ND (^ <4%),ND (^ <4%),ND (^ <4%),ND (^ <4%),ND (^ <4%),ND (^ <4%),ND (^ <4%),–,ND (^ <4%),+++ (≥49%),–,–,–,+ (≥4%),–,–,++ (≥24%),–,–
"CNC1CCc2c(C)sc(C)c2C1 (single isomer, unassigned) [Compound 30, N, 1,3-trimethyl-4,5,6,7-tetrahydro-2-benzothiophen-5-amine hydrochloride]",0.3 mpk,ND (^ <4%),ND (^ <4%),ND (^ <4%),ND (^ <4%),ND (^ <4%),ND (^ <4%),–,ND (^ <4%),–,++++ (≥74%),ND (^ <4%),–,–,–,–,ND (^ <4%),–,–,+ (≥4%)
"CNC1CCc2c(C)sc(C)c2C1 (single isomer, unassigned) [Compound 31, N, 1,3-trimethyl-4,5,6,7-tetrahydro-2-benzothiophen-5-amine hydrochloride]",3.0 mpk,ND (^ <4%),ND (^ <4%),ND (^ <4%),ND (^ <4%),ND (^ <4%),ND (^ <4%),–,ND (^ <4%),–,+++ (≥49%),++ (≥24%),–,–,–,–,ND (^ <4%),–,–,ND (^ <4%)
"CNC1CCc2c(csc2C)C1 (single isomer, unassigned) [Compound 32, N, 1-dimethyl-4,5,6,7-tetrahydro-2-benzothiophen-5-amine hydrochloride]",1.0 mpk,ND (^ <4%),ND (^ <4%),ND (^ <4%),ND (^ <4%),ND (^ <4%),ND (^ <4%),ND (^ <4%),ND (^ <4%),–,+ (≥4%),++ (≥24%),–,–,–,–,+++ (≥49%),–,–,–

# From patent publication US20260274814A1, “THIENYL COMPOUNDS FOR THE TREATMENT OF A CENTRAL NERVOUS SYSTEM DISEASE OR DISORDER” (Coreterra Therapeutics, Inc., priority 2023, published 2026)
